{"source": "ChEMBL document CHEMBL4145665", "about": "“Structure-Activity Relationship of Novel and Selective Biaryl-Chroman GPR40 AgoPAMs” (ACS Med Chem Lett, 2018)", "key": {"[1]": {"test": "Drug metabolism in human hepatocytes assessed as phenol metabolite formation", "assay_type": "ADME, cell-based, Hepatocyte"}, "[2]": {"test": "Oral bioavailability in rhesus monkey at 2 mg/kg administered as single dose", "assay_type": "ADME, organism-based, Macaca mulatta", "details": "in vivo"}, "[3]": {"test": "Tmax in Wistar rat at 200 mg/kg administered once daily for 4 days", "assay_type": "ADME, organism-based", "details": "in vivo"}, "[4]": {"test": "Cmax in Wistar rat at 200 mg/kg administered once daily for 4 days", "assay_type": "ADME, organism-based", "parameters": "dose 200 mg/kg", "details": "in vivo"}, "[5]": {"test": "Clearance in rhesus monkey at 1 mg/kg, iv or 2 mg/kg, po administered as single dose", "assay_type": "ADME, organism-based, Macaca mulatta", "details": "in vivo"}, "[6]": {"test": "Fraction unbound in Wistar-Han rat plasma at 1 mg/kg, iv or 2 mg/kg, po administered as single dose", "assay_type": "ADME, organism-based"}, "[7]": {"target": "Free fatty acid receptor 1 (Rattus norvegicus, UniProt Q8K3T4)", "sequence (Q8K3T4 whole entry)": "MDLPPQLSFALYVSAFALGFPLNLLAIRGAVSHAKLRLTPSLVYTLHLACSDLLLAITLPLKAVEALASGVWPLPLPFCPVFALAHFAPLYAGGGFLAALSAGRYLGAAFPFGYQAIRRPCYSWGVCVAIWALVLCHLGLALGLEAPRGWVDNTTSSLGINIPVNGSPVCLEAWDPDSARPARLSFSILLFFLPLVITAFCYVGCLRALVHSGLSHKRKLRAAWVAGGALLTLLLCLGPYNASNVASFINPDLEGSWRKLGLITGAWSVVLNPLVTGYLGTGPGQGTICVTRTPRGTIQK", "test": "Agonist activity at recombinant rat GPR40 expressed in CHOK1 cells assessed as increase in IP1 accumulation measured after 60 mins by HTRF assay", "assay_type": "functional, cell-based"}, "Rattus norvegicus [8]": {"system": "Rattus norvegicus", "test": "Antidiabetic activity in po dosed Goto Kakizaki rats assessed as reduction in blood glucose excursion pretreated for 1 hr followed by dextrose challenge measured after 20 to 60 mins by OGTT method", "assay_type": "functional", "details": "read-out: MED"}, "[9]": {"test": "Clearance in Beagle dog at 1 mg/kg, iv or 2 mg/kg, po administered as single dose", "assay_type": "ADME, organism-based, Canis lupus familiaris", "details": "in vivo"}, "Rattus norvegicus [10]": {"system": "Rattus norvegicus", "test": "Antidiabetic activity in Goto Kakizaki rats assessed as plasma concentration required for reduction in blood glucose excursion at 30 mg/kg, po pretreated for 1 hr followed by dextrose challenge measured 3 hrs post dose by OGTT", "assay_type": "functional, organism-based"}, "[11]": {"target": "Free fatty acid receptor 1 (Rattus norvegicus) (UniProt Q8K3T4)", "sequence (Q8K3T4 whole entry)": "as above", "test": "Agonist activity at recombinant rat GPR40 expressed in CHOK1 cells assessed as increase in IP1 accumulation measured after 60 mins by HTRF assay relative to AM-1638", "assay_type": "functional, cell-based"}, "[12]": {"test": "Cmax in Wistar rat at 750 mg/kg administered once daily for 4 days", "assay_type": "ADME, organism-based", "parameters": "dose 750 mg/kg", "details": "in vivo"}, "[13]": {"test": "Intrinsic clearance in Wistar-Han rat hepatocytes", "assay_type": "ADME, cell-based, Hepatocyte", "details": "read-out: CLH"}, "Rattus norvegicus [14]": {"system": "Rattus norvegicus", "test": "Antidiabetic activity in Goto Kakizaki rats assessed as inhibition of blood glucose AUC at 30 mg/kg, po pretreated for 1 hr followed by dextrose challenge measured after 20 to 60 mins by OGTT method relative to control", "assay_type": "functional"}, "Mus musculus": {"system": "Mus musculus", "test": "Antidiabetic activity in po dosed C57BL/6 mouse assessed as increase in GLP-1 secretion measured after 1 hr", "assay_type": "functional, organism-based"}, "[15]": {"test": "Effective half life in Wistar-Han rat at 1 mg/kg, iv or 2 mg/kg, po administered as single dose", "assay_type": "ADME, organism-based", "details": "in vivo, read-out: t1/2eff (converted)"}, "[16]": {"target": "T1, Free fatty acid receptor 1 (Homo sapiens, UniProt O14842)", "T1 sequence (O14842 whole entry)": "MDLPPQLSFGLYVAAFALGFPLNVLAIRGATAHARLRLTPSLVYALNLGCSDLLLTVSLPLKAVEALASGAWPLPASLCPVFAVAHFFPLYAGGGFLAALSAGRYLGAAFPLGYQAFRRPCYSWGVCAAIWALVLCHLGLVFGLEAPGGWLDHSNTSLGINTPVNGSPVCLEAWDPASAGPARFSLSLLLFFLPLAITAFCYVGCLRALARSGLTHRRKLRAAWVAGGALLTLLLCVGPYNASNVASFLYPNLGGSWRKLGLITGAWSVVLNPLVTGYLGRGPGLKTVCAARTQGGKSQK", "test": "Agonist activity at recombinant human GPR40 expressed in HEK293 cells assessed as increase in IP1 accumulation measured after 60 mins by HTRF assay", "assay_type": "functional, cell-based"}, "[17]": {"test": "Clearance in Wistar-Han rat at 1 mg/kg, iv or 2 mg/kg, po administered as single dose", "assay_type": "ADME, organism-based", "details": "in vivo"}, "Rattus norvegicus [18]": {"system": "Rattus norvegicus", "test": "Antidiabetic activity in Goto Kakizaki rats assessed as plasma concentration required for reduction in blood glucose excursion at 10 mg/kg, po pretreated for 1 hr followed by dextrose challenge measured 3 hrs post dose by OGTT", "assay_type": "functional, organism-based"}, "[19]": {"target": "T1, Free fatty acid receptor 1", "test": "Agonist activity at recombinant human GPR40 expressed in HEK293 cells assessed as increase in IP1 accumulation measured after 60 mins in presence of 100% human serum by HTRF assay relative to AM-1638", "assay_type": "functional, cell-based"}, "Rattus norvegicus [20]": {"system": "Rattus norvegicus", "test": "Toxicity in Wistar rat assessed as gross findings at 200 to 750 mg/kg administered once daily for 4 days", "assay_type": "organism-based", "details": "in vivo, 96 h"}, "Rattus norvegicus [21]": {"system": "Rattus norvegicus", "test": "Antidiabetic activity in Goto Kakizaki rats assessed as plasma concentration required for reduction in blood glucose excursion at 0.3 mg/kg, po pretreated for 1 hr followed by dextrose challenge measured 3 hrs post dose by OGTT", "assay_type": "functional, organism-based"}, "Rattus norvegicus [22]": {"system": "Rattus norvegicus", "test": "Toxicity in Wistar rat assessed as change in functional observational battery at 200 to 750 mg/kg administered once daily for 4 days", "assay_type": "organism-based", "details": "in vivo, 96 h"}, "[23]": {"test": "AUC (0 to 24 hrs) in Wistar rat at 750 mg/kg administered once daily for 4 days", "assay_type": "ADME, organism-based", "parameters": "dose 750 mg/kg, time < 24 hr", "details": "in vivo"}, "Rattus norvegicus [24]": {"system": "Rattus norvegicus", "test": "Toxicity in Wistar rat assessed as decrease in body weight at 750 mg/kg administered once daily for 4 days relative to control", "assay_type": "organism-based", "parameters": "scale not given: the % may be the effect or the level left", "details": "in vivo, 96 h"}, "[25]": {"test": "Lipophilicity, log D of the compound at pH 7 at 100 uM by HPLC method", "assay_type": "physicochemical", "details": "buffer"}, "Rattus norvegicus [26]": {"system": "Rattus norvegicus", "test": "Antidiabetic activity in Goto Kakizaki rats assessed as plasma concentration required for reduction in blood glucose excursion at 1 mg/kg, po pretreated for 1 hr followed by dextrose challenge measured 3 hrs post dose by OGTT", "assay_type": "functional, organism-based"}, "[27]": {"test": "Volume of distribution at steady state in rhesus monkey at 1 mg/kg, iv or 2 mg/kg, po administered as single dose", "assay_type": "ADME, organism-based, Macaca mulatta", "details": "in vivo, read-out: Vdss"}, "Rattus norvegicus [28]": {"system": "Rattus norvegicus", "test": "Antidiabetic activity in Goto Kakizaki rats assessed as plasma concentration required for reduction in blood glucose excursion at 3 mg/kg, po pretreated for 1 hr followed by dextrose challenge measured 3 hrs post dose by OGTT", "assay_type": "functional, organism-based"}, "Rattus norvegicus [29]": {"system": "Rattus norvegicus", "test": "Toxicity in Wistar rat assessed as change in cardiac troponin1 levels at 200 to 750 mg/kg administered once daily for 4 days", "assay_type": "organism-based", "details": "in vivo, 96 h"}, "Rattus norvegicus [30]": {"system": "Rattus norvegicus", "test": "Antidiabetic activity in Sprague-Dawley rat assessed as inhibition of blood glucose AUC at 3 mg/kg, po treated prior to dextrose challenge and measured after 20 to 60 mins by IPGTT relative to control", "assay_type": "functional", "details": "Rattus norvegicus, Sprague-Dawley, po"}, "Rattus norvegicus [31]": {"system": "Rattus norvegicus", "test": "Toxicity in Wistar rat assessed as mortality at 200 to 750 mg/kg administered once daily for 4 days", "assay_type": "organism-based", "details": "in vivo, 96 h"}, "[32]": {"target": "T2, Free fatty acid receptor 4 (Homo sapiens, UniProt Q5NUL3)", "T2 sequence (Q5NUL3 whole entry)": "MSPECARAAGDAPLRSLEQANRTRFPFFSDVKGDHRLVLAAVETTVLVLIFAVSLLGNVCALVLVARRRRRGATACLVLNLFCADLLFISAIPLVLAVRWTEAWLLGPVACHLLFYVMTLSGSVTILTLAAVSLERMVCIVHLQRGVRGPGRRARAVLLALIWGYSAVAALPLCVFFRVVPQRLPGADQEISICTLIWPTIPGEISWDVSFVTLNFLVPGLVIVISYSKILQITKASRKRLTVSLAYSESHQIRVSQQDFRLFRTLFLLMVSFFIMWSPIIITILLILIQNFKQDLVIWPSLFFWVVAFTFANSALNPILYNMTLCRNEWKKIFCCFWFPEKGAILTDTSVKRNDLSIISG", "test": "Agonist activity at GPR120 (unknown origin)", "assay_type": "functional"}, "[33]": {"test": "Effective half life in rhesus monkey at 1 mg/kg, iv or 2 mg/kg, po administered as single dose", "assay_type": "ADME, organism-based, Macaca mulatta", "details": "in vivo, read-out: t1/2eff (converted)"}, "[34]": {"test": "Effective half life in Beagle dog at 1 mg/kg, iv or 2 mg/kg, po administered as single dose", "assay_type": "ADME, organism-based, Canis lupus familiaris", "details": "in vivo, read-out: t1/2eff (converted)"}, "Rattus norvegicus [35]": {"system": "Rattus norvegicus", "test": "Toxicity in Wistar rat assessed as decrease in body weight at 200 mg/kg administered once daily for 4 days relative to control", "assay_type": "organism-based", "parameters": "scale not given: the % may be the effect or the level left", "details": "in vivo, 96 h"}, "Rattus norvegicus [36]": {"system": "Rattus norvegicus", "test": "Antidiabetic activity in Goto Kakizaki rats assessed as inhibition of blood glucose AUC at 0.3 mg/kg, po pretreated for 1 hr followed by dextrose challenge measured after 20 to 60 mins by OGTT method relative to control", "assay_type": "functional"}}, "data": [{"smiles": "COc1cc(-c2ccc([C@@H]3CCc4ccc([C@H](C5CC5)[C@H](C)C(=O)[O-])cc4O3)c(F)c2)ccn1.[Na+]", "values": [{"measurement": "Drug metabolism", "setting": "[1]", "value": "Metabolite_Notdetected"}, {"measurement": "bioavailability", "setting": "[2]", "value": 64, "unit": "%"}, {"measurement": "Tmax", "setting": "[3]", "value": "1 to 2", "unit": "h"}, {"measurement": "Cmax", "setting": "[4]", "value": 223, "unit": "µM"}, {"measurement": "clearance", "setting": "[5]", "value": 0.72, "unit": "mL/min/kg"}, {"measurement": "fraction unbound", "setting": "[6]", "value": 0.0002}, {"measurement": "EC50", "setting": "[7]", "value": 0.49, "unit": "nM"}, {"measurement": "minimal effective dose", "setting": "Rattus norvegicus [8]", "value": 10, "unit": "mg/kg"}, {"measurement": "clearance", "setting": "[9]", "value": 1.6, "unit": "mL/min/kg"}, {"measurement": "Cp", "setting": "Rattus norvegicus [10]", "value": 7.7, "unit": "µM"}, {"measurement": "max activation", "setting": "[11]", "value": "> 370", "unit": "%"}, {"measurement": "Cmax", "setting": "[12]", "value": 545, "unit": "µM"}, {"measurement": "CLint scaled", "setting": "[13]", "value": 241, "unit": "mL/min/kg"}, {"measurement": "inhibition in vivo at 30 mg/kg", "setting": "Rattus norvegicus [14]", "value": 114, "unit": "%"}, {"measurement": "Activity", "setting": "Mus musculus", "value": "Dose-dependent effect"}, {"measurement": "half-life", "setting": "[15]", "value": 3.7, "unit": "h"}, {"measurement": "EC50", "setting": "[16]", "value": 0.8, "unit": "nM"}, {"measurement": "clearance", "setting": "[17]", "value": 2.8, "unit": "mL/min/kg"}, {"measurement": "Cp", "setting": "Rattus norvegicus [18]", "value": 4.9, "unit": "µM"}, {"measurement": "max activation", "setting": "[19]", "value": "> 179", "unit": "%"}, {"measurement": "Activity", "setting": "Rattus norvegicus [20]", "value": "Non-Toxic"}, {"measurement": "Cp", "setting": "Rattus norvegicus [21]", "value": 0.25, "unit": "µM"}, {"measurement": "Activity", "setting": "Rattus norvegicus [22]", "value": "Non-Toxic"}, {"measurement": "AUC at 24 h", "setting": "[23]", "value": 7350, "unit": "µM·h"}, {"measurement": "Activity", "setting": "Rattus norvegicus [24]", "value": 90, "unit": "%"}, {"measurement": "logD at 100 µM", "setting": "[25]", "value": 2.51}, {"measurement": "Cp", "setting": "Rattus norvegicus [26]", "value": 0.9, "unit": "µM"}, {"measurement": "Vd", "setting": "[27]", "value": 0.48, "unit": "L/kg"}, {"measurement": "Cp", "setting": "Rattus norvegicus [28]", "value": 2.2, "unit": "µM"}, {"measurement": "Activity", "setting": "Rattus norvegicus [29]", "value": "Non-Toxic"}, {"measurement": "inhibition in vivo at 3 mg/kg", "setting": "Rattus norvegicus [30]", "value": 103, "unit": "%"}, {"measurement": "Activity", "setting": "Rattus norvegicus [31]", "value": "Non-Toxic"}, {"measurement": "EC50", "setting": "[32]", "value": "> 10000", "unit": "nM"}, {"measurement": "half-life", "setting": "[33]", "value": 10, "unit": "h"}, {"measurement": "half-life", "setting": "[34]", "value": 6.9, "unit": "h"}, {"measurement": "Activity", "setting": "Rattus norvegicus [35]", "value": 72, "unit": "%"}, {"measurement": "inhibition in vivo at 0.3 mg/kg", "setting": "Rattus norvegicus [36]", "value": 63, "unit": "%"}]}]}
